Data reported in PubChem BioAssay AID2060485 (Molecular Pharmacology Branch, DTP, NCI, 2025).

Tested on: A375 multi-cell spheroids with HUVEC/MSC, viability
Assay: Anticancer human tumor A375 cell line growth inhibition [GQUAD];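 further: spheroids exposed to compounds for seven days before readout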
Conditions: for IC50: curve of first compound; for viability, T/C: stronger effect = lower value
Method in brief: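 Tumor cells were grown as complex spheroids with HUVEC endothelial cells and mesenchymal stem cells as stroma. G-quadruplex stabilizers were combined with targeted agents over half-log dilutions from near the clinical Cmax, or from 10 microM.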

[1] = second compound 0.0316 µM, first compound 0.0316 µM
[2] = second compound 0.0316 µM, first compound 0.1 µM
[3] = second compound 0.0316 µM, first compound 0.316 µM
[4] = second compound 0.0316 µM, first compound 1 µM
[5] = second compound 0.0316 µM, first compound 3.16 µM
[6] = second compound 0.0316 µM, first compound 10 µM
[7] = second compound 0.1 µM, first compound 0.0316 µM
[8] = second compound 0.1 µM, first compound 0.1 µM
[9] = second compound 0.1 µM, first compound 0.316 µM
[10] = second compound 0.1 µM, first compound 1 µM
[11] = second compound 0.1 µM, first compound 3.16 µM
[12] = second compound 0.1 µM, first compound 10 µM
[13] = second compound 0.316 µM, first compound 0.0316 µM
[14] = second compound 0.316 µM, first compound 0.1 µM
[15] = second compound 0.316 µM, first compound 0.316 µM
[16] = second compound 0.316 µM, first compound 1 µM
[17] = second compound 0.316 µM, first compound 3.16 µM
[18] = second compound 0.316 µM, first compound 10 µM
[19] = second compound 1 µM, first compound 0.0316 µM
[20] = second compound 1 µM, first compound 0.1 µM
[21] = second compound 1 µM, first compound 0.316 µM
[22] = second compound 1 µM, first compound 1 µM
[23] = second compound 1 µM, first compound 3.16 µM
[24] = second compound 1 µM, first compound 10 µM
[25] = second compound 3.16 µM, first compound 0.0316 µM
[26] = second compound 3.16 µM, first compound 0.1 µM
[27] = second compound 3.16 µM, first compound 0.316 µM
[28] = second compound 3.16 µM, first compound 1 µM
[29] = second compound 3.16 µM, first compound 3.16 µM
[30] = second compound 3.16 µM, first compound 10 µM
[31] = second compound 10 µM, first compound 0.0316 µM
[32] = second compound 10 µM, first compound 0.1 µM
[33] = second compound 10 µM, first compound 0.316 µM
[34] = second compound 10 µM, first compound 1 µM
[35] = second compound 10 µM, first compound 3.16 µM
[36] = second compound 10 µM, first compound 10 µM

What does the source list for CC(C)(O)C1CCC(Nc2ccc3ncc(-c4cccc(C(F)(F)F)c4)n3n2)CC1 (stereo unspecified) + Cc1cnc(CNC(=O)c2c(=O)c3ccc(N4CCCN(C)CC4)nc3n3c2sc2ccccc23)cn1?
IC50 (second compound 0.0316 µM): > 10000 nM; IC50 (second compound 0.1 µM): 1730 nM; IC50 (second compound 0.316 µM): 124 nM; IC50 (second compound 1 µM): < 31.6 nM; IC50 (second compound 3.16 µM): < 31.6 nM; IC50 (second compound 10 µM): < 31.6 nM; viability, T/C [1]: 104%; viability, T/C [2]: 110%; viability, T/C [3]: 103%; viability, T/C [4]: 96.1%; viability, T/C [5]: 65.3%; viability, T/C [6]: 91.2%; viability, T/C [7]: 85.9%; viability, T/C [8]: 79.5%; viability, T/C [9]: 78.2%; viability, T/C [10]: 54.5%; viability, T/C [11]: 41%; viability, T/C [12]: 49.1%; viability, T/C [13]: 55%; viability, T/C [14]: 53.4%; viability, T/C [15]: 45.5%; viability, T/C [16]: 38.8%; viability, T/C [17]: 31.7%; viability, T/C [18]: 29.7%; viability, T/C [19]: 38.5%; viability, T/C [20]: 40.9%; viability, T/C [21]: 38%; viability, T/C [22]: 31.4%; viability, T/C [23]: 27.6%; viability, T/C [24]: 25%; viability, T/C [25]: 32.5%; viability, T/C [26]: 35.4%; viability, T/C [27]: 33%; viability, T/C [28]: 26.3%; viability, T/C [29]: 17.5%; viability, T/C [30]: 23.8%; viability, T/C [31]: 29.4%; viability, T/C [32]: 27.5%; viability, T/C [33]: 28.9%; viability, T/C [34]: 21.2%; viability, T/C [35]: 8.8%; viability, T/C [36]: 0.26%

Which IC50 (second compound 0.0316 µM) does the source give for Nc1ccn(C2OC(CO)C(O)C2(F)F)c(=O)n1 (stereo unspecified) + Cc1cnc(CNC(=O)c2c(=O)c3ccc(N4CCCN(C)CC4)nc3n3c2sc2ccccc23)cn1 here?
Its IC50 is less than 31.6 nM.

What about the IC50 (second compound 0.1 µM) of the same molecule?
The IC50 was less than 31.6 nM.

And the IC50 (second compound 0.316 µM)?
Its IC50 is less than 31.6 nM.

What about the IC50 (second compound 1 µM) of the same molecule?
Its IC50 is less than 31.6 nM.

And the IC50 (second compound 3.16 µM)?
The IC50 was less than 31.6 nM.

And the IC50 (second compound 10 µM)?
The IC50 was less than 31.6 nM.

And the viability, T/C [1]?
Its viability, T/C is 22.9%.

And the viability, T/C [2]?
Its viability, T/C is 10.1%.

And the viability, T/C [3]?
Its viability, T/C is 10.4%.

And the viability, T/C [4]?
Its viability, T/C is 10.4%.

And the viability, T/C [5]?
Its viability, T/C is 8.9%.

And the viability, T/C [6]?
Its viability, T/C is 7.49%.

What about the viability, T/C [7] of the same molecule?
Its viability, T/C is 23.4%.

And the viability, T/C [8]?
The viability, T/C was 10.8%.

And the viability, T/C [9]?
Its viability, T/C is 9.94%.

And the viability, T/C [10]?
Its viability, T/C is 10.3%.

What about the viability, T/C [11] of the same molecule?
Its viability, T/C is 9.17%.

And the viability, T/C [12]?
The viability, T/C was 7.13%.

And the viability, T/C [13]?
Its viability, T/C is 22.3%.

And the viability, T/C [14]?
Its viability, T/C is 12.7%.

And the viability, T/C [15]?
The viability, T/C was 9.56%.

And the viability, T/C [16]?
Its viability, T/C is 11.4%.

And the viability, T/C [17]?
The viability, T/C was 10%.

What about the viability, T/C [18] of the same molecule?
Its viability, T/C is 7.6%.

What about the viability, T/C [19] of the same molecule?
Its viability, T/C is 28.3%.

And the viability, T/C [20]?
Its viability, T/C is 14.9%.

And the viability, T/C [21]?
Its viability, T/C is 13.3%.

And the viability, T/C [22]?
Its viability, T/C is 13.8%.

And the viability, T/C [23]?
The viability, T/C was 12.5%.

What about the viability, T/C [24] of the same molecule?
Its viability, T/C is 7.97%.

And the viability, T/C [25]?
Its viability, T/C is 29%.

What about the viability, T/C [26] of the same molecule?
The viability, T/C was 20.9%.

What about the viability, T/C [27] of the same molecule?
The viability, T/C was 18.9%.

And the viability, T/C [28]?
Its viability, T/C is 14.1%.

What about the viability, T/C [29] of the same molecule?
Its viability, T/C is 11.8%.

And the viability, T/C [30]?
Its viability, T/C is 6.29%.

What about the viability, T/C [31] of the same molecule?
Its viability, T/C is 24.9%.

And the viability, T/C [32]?
Its viability, T/C is 22.1%.

What about the viability, T/C [33] of the same molecule?
The viability, T/C was 19.1%.

And the viability, T/C [34]?
Its viability, T/C is 14.6%.

What about the viability, T/C [35] of the same molecule?
The viability, T/C was 10.9%.

And the viability, T/C [36]?
The viability, T/C was 2.89%.

With CCCS(=O)(=O)Nc1ccc(F)c(C(=O)c2c[nH]c3ncc(-c4ccc(Cl)cc4)cc23)c1F + CN(C)c1ccc(Nc2c3ccc(NC(=O)CCN4CCCC4)cc3nc3cc(NC(=O)CCN4CCCC4)ccc23)cc1 as the molecule, how does the IC50 (second compound 0.0316 µM) read?
Its IC50 is less than 31.6 nM.

What about the IC50 (second compound 0.1 µM) of the same molecule?
The IC50 was less than 31.6 nM.

What about the IC50 (second compound 0.316 µM) of the same molecule?
The IC50 was less than 31.6 nM.

What about the IC50 (second compound 1 µM) of the same molecule?
The IC50 was less than 31.6 nM.

What about the IC50 (second compound 3.16 µM) of the same molecule?
Its IC50 is less than 31.6 nM.

And the IC50 (second compound 10 µM)?
The IC50 was less than 31.6 nM.

What about the viability, T/C [1] of the same molecule?
Its viability, T/C is 40.3%.

What about the viability, T/C [2] of the same molecule?
Its viability, T/C is 14.1%.

What about the viability, T/C [3] of the same molecule?
Its viability, T/C is 8.13%.

What about the viability, T/C [4] of the same molecule?
Its viability, T/C is 6.52%.

What about the viability, T/C [5] of the same molecule?
Its viability, T/C is 4.92%.

What about the viability, T/C [6] of the same molecule?
Its viability, T/C is 5.69%.

What about the viability, T/C [7] of the same molecule?
Its viability, T/C is 45%.

And the viability, T/C [8]?
Its viability, T/C is 14.1%.

What about the viability, T/C [9] of the same molecule?
Its viability, T/C is 7.72%.

What about the viability, T/C [10] of the same molecule?
The viability, T/C was 6.32%.

And the viability, T/C [11]?
Its viability, T/C is 5.28%.

And the viability, T/C [12]?
Its viability, T/C is 5.54%.

What about the viability, T/C [13] of the same molecule?
Its viability, T/C is 39.4%.

And the viability, T/C [14]?
Its viability, T/C is 14.7%.

What about the viability, T/C [15] of the same molecule?
Its viability, T/C is 8.27%.

And the viability, T/C [16]?
The viability, T/C was 6.77%.

And the viability, T/C [17]?
Its viability, T/C is 4.48%.

What about the viability, T/C [18] of the same molecule?
Its viability, T/C is 4.46%.

What about the viability, T/C [19] of the same molecule?
Its viability, T/C is 34.9%.

What about the viability, T/C [20] of the same molecule?
Its viability, T/C is 15%.

And the viability, T/C [21]?
The viability, T/C was 7.95%.

And the viability, T/C [22]?
The viability, T/C was 6.06%.

What about the viability, T/C [23] of the same molecule?
Its viability, T/C is 4.78%.

What about the viability, T/C [24] of the same molecule?
The viability, T/C was 2.9%.

And the viability, T/C [25]?
The viability, T/C was 36.5%.

And the viability, T/C [26]?
Its viability, T/C is 14.8%.

And the viability, T/C [27]?
The viability, T/C was 6.95%.

And the viability, T/C [28]?
Its viability, T/C is 5.84%.

And the viability, T/C [29]?
Its viability, T/C is 4.55%.

What about the viability, T/C [30] of the same molecule?
The viability, T/C was 0.61%.

And the viability, T/C [31]?
The viability, T/C was 36.9%.

And the viability, T/C [32]?
The viability, T/C was 12.4%.

And the viability, T/C [33]?
Its viability, T/C is 7%.

And the viability, T/C [34]?
The viability, T/C was 5.45%.

And the viability, T/C [35]?
Its viability, T/C is 4.34%.

What about the viability, T/C [36] of the same molecule?
Its viability, T/C is 0.17%.
